Experimental findings from patent publication US20140288061A1, “INSECTICIDE COMPOSITIONS AND PROCESS” (priority 2004, published 2014) are described below.

In one series the test system is German cockroaches. The settings on record: 2 μl per insect; evaluated after 24 hours; alone or with 10% solution (ETCH) of Tomadol 23-1. The method, then:
Dose-response evaluations were performed on 1-4 week old adults SJC Strain (S.C. Johnson & Son, Racine, Wis.) German cockroaches, Blattella germanica, L. Insects were individually transferred using a 7″ (18 cm) […] forceps to 100×20 mm polystyrene Petri dishes. The inside edge of the dishes was lightly coated with a layer of (1:3) mineral oil+petroleum jelly to minimize insect escape. Approximately 10 cockroaches were transferred to each dish and then anesthetized with a 15-25 second exposure to CO2. Anesthetized cockroaches were positioned with their ventral side up in the bottom of the Petri dish. A 2 μl drop of test solution was applied to the area between the meso- and methathoracic legs using a Rainen L-10 10 μl pipette. Control cockroaches were treated with a 2 μl drop of the solvent, 100% ethyl alcohol.
Structure—activity tests used to calculate LT50 values were scored approximately every 30 minutes for the first two hours following treatment followed by approximate hourly readings to hour 8 with a final reading at 24 hours. Cockroaches were scored as either alive (dorsal side up, active movement when abdomen prodded) or moribund/dead (dorsal side up and no movement when abdomen prodded or ventral side up and insect unable to right itself).
Consider `CC1(C)C(C=C(Cl)Cl)C1C(=O)OC(C#N)c1ccc(F)c(Oc2ccccc2)c1` (centres unmarked) [cyfluthrin], for which the “LC50 (%) [95% CI]” value turned out to be 0.0050%.
Still for that read-out and setting: under `CNC(=O)Oc1ccccc1OC(C)C` [propoxur] stands 0.0101%; under `CN/C(=N\[N+](=O)[O-])NCc1cnc(Cl)s1` [clothianidin], 0.0020%; under `COP(=O)(NC(C)=O)SC` (centres unmarked) [acephate], 0.0051%.
Take `O=[N+]([O-])NC1=NCCN1Cc1ccc(Cl)nc1` [imidacloprid]: the “LC50 (%) [95% CI]” value is listed as 0.0219%.
For the compound `CCOCn1c(-c2ccc(Cl)cc2)c(C#N)c(Br)c1C(F)(F)F` [chlorfenapyr], the “LC50 (%) [95% CI]” value amounted to 0.4062%.
The same measure, in the same setting: the figure for `CN1COCN(Cc2cnc(Cl)s2)/C1=N\[N+](=O)[O-]` [thiamethoxam] is 0.0038%.

Still in this series, the particulars now being: in words.
Turning to `COP(=O)(NC(C)=O)SC` (centres unmarked) [acephate], the “synergy of insecticidal activity by Tomadol 23-1 (reduced the LC50)” value is recorded as “did not synergize”.
